US20260294874A1, “COMPOSITIONS COMPRISING MODULATORS OF RIBONUCLEOPROTEIN GRANULE FORMATION AND DISSOLUTION AND METHODS OF USE THEREOF” (University of Virginia Patent Foundation, priority 2023, published 2026)
Values joined by “and” are separate entries in the source; they are usually repeats but may differ in a detail not shown here. Equal entries are not always repeated. “Also recorded” adds a separate entry of the source. Where two headings read alike, the source gives them in different places.

How the values were obtained:
recombinant EDC3 = target: T1, recombinant EDC3 (Homo sapiens, UniProt Q96F86); assay: Competitive gel-based ABPP, HHS-465 probe labeling of recombinant EDC3 in HEK293T cells; type: cell-based; conditions: for inhibition of HHS-465 probe labeling of recombinant EDC3 (in words): 25 μM, 2 h (FIG. 4F), 0.1-100 μM for concentration dependence (FIG. 4D)
T1 construct: FLAG; expressed in transfected cells; host or cells: HEK293T
T1 sequence (Q96F86 1-508): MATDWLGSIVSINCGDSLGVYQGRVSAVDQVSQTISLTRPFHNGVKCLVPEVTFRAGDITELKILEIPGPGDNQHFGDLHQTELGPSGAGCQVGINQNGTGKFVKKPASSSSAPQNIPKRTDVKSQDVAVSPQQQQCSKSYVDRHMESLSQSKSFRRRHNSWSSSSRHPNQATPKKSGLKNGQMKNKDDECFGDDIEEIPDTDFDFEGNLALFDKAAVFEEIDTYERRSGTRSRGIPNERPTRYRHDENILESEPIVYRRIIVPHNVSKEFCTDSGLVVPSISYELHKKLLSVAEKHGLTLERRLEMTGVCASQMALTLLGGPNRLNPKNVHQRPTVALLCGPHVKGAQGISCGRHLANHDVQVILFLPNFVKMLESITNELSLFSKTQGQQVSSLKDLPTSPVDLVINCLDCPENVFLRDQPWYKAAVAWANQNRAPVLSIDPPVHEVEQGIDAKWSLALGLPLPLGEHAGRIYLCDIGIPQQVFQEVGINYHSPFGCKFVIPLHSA
From the text: FIGS. 4A-4F. Discovery of a SuTEx ligand for the hyper-reactive EDC3 Y475 site. (FIG. 4A) Overlap of liganded sites from SuTEx PB modulators with reported RNA granule induction-sensitive lysine and tyrosine sites (RISKYs; Ciancone et al., 2022). The five overlapping sites were further compared to previously reported hyper-RISKY sites (Ciancone et al., 2022) resulting in the identification of the tyrosine-475 (Y475) site on EDC3. (FIG. 4B) Representative immunofluorescence images depicting decreased PBs and increased SGs in AHL-030-treated cells under stress conditions. EKT235 is shown as a negative control. See FIGS. 8 and 9 for additional details. (FIG. 4C) Representative MS1 extracted ion chromatograms (EICs) showing EDC3 Y475 (i.e., amino acid 2 of the peptide sequence […]; SEQ ID NO: 1, which corresponds to amino acids 474-500 of the human enhancer of mRNA-decapping protein 3 isoform 1 polypeptide of GENBANK® Accession No. NP_001135915.1) is liganded by AHL-030 but not EKT235 [SILAC ratio or SR>2 for DMSO vehicle (light, red)/SuTEx fragment ligand (heavy, blue) treatment conditions]. Enrichment (HHS-465/DMSO) and 1:1 (HHS-465/HHS-465) controls are shown. SRs are calculated as the integrated area under the curve ratio of light-to-heavy peptide. Data are representative of n=2-3 biologically independent replicates. […] EDC3-expressing HEK293T cells were pretreated with varying concentrations of AHL-030 (0.1-100 μM, 2 hours) followed by lysis and probe labeling of soluble proteomes with HHS-465 (100 μM, 1 h, RT). The in situ IC50 for EDC3 probe labeling inhibition by AHL-030 was estimated to be ~6 μM. […] Data shown are mean±SEM and representative of n=3 biologically independent replicates. […] Western blots comparing recombinant expression of EDC3 (α-FLAG) and loading controls (α-GAPDH) are shown. Data are representative of n=2 biologically independent replicates.
Among the candidate PB-modulating SuTEx compounds, we focused on AHL-030 because of its PB-inhibitory, SG-enhancing activity in stressed cells and ability to ligand the EDC3 Y475 site (SR >2; FIGS. 4B and 4C). Importantly, we identified a restricted number of reproducibly liganded sites (7 in total) in addition to EDC3 Y475 in chemoproteomic profiling studies of AHL-030 (FIG. 12). We further confirmed AHL-030 as an EDC3 ligand using competitive activity-based protein profiling (ABPP; Grams & Hsu, 2022). Recombinant EDC3-expressing HEK293T cells were treated with a panel of RNP granule modulators including AHL-030 and the negative control compound EKT235 to evaluate structure-activity relationships (SAR, 25 μM compounds, 2 h). Cells were lysed and soluble proteomes labeled with HHS-465 (100 μM, 1 h, RT) followed by CuAAC with rhodamine-azide, SDS-PAGE and in-gel fluorescence scanning. […] Using the in vitro IC50, we calculated the lipophilic efficiency (LipE) of AHL-030 to be ~7, which falls in the range of acceptable lipophilicity in relation to potency (Leeson & Springthorpe, 2007).

G3BP1 Y40 = target: T2, G3BP1 Y40 (Homo sapiens, UniProt Q13283); assay: Competitive ABPP SILAC LC-MS/MS chemical proteomics, G3BP1 Y40; type: cell-based; conditions: stressed HeLa cells, 25 μM, 2 h
T2 construct: liganded site Y40 in NTF2 domain
Description: Preparation of SILAC proteomes for LC-MS/MS analysis. SILAC cell proteomes were fractionated to collect the supernatant and normalized to 2.3 mg/mL in PBS. ‘Heavy’ and ‘light’ proteomes were aliquoted (427 μL) and probe-modified proteins were conjugated to desthiobiotin-PEG-3-azide using copper-catalyze azide-alkyne cycloaddition, trypsinized into peptides using Trypsin/Lys-C Mix (Catalog No. V5071; Promega Corporation, Madison, Wisconsin, United States of America), enriched using PIERCE™ Avidin Agarose brand beads (Catalog No. 20219; Thermo Fisher Scientific Inc., Waltham, Massachusetts. United States of America), and prepared for nano-electrospray ionization-LC-MS/MS analysis as previously described in Hahm et al., 2020.
Data Analysis—Chemical Proteomics. Identification and analysis of peptides and proteins using LC-MS was accomplished using bioinformatics software and quality control parameter protocols as previously described in Hahm et al., 2020.
We performed quantitative liquid-chromatography tandem mass spectrometry (LC-MS/MS) chemical proteomic studies to identify the target protein and binding site(s) of SuTEx fragments with RNP granule modulating activity. […] SILAC light and heavy cells (HEK293T and HeLa) were treated with experimental conditions used for phenotypic screening including the SuTEx ligand pretreatment (25 μM, 2 h) followed by PB (glucose-deprivation, 15 min) and SG induction (75 μM [COMPOUND LEFT OUT], 30 min). Afterwards, cells were lysed, soluble proteomes treated with HHS-465 SuTEx probe (100 μM, 1 h), a global Tyr/Lys-reactive probe used previously for RNP granule investigations (Ciancone et al., 2022), and samples processed to probe-modified peptides for LC-MS/MS analysis as previously reported (Huang et al., 2021), shown in FIG. 10.
We detected ~8,700 probe-modified sites (Tyr and Lys) in our aggregate HeLa and HEK293T chemical proteomic analyses. […]

T2 sequence (Q13283 whole entry, the tested form may be a part): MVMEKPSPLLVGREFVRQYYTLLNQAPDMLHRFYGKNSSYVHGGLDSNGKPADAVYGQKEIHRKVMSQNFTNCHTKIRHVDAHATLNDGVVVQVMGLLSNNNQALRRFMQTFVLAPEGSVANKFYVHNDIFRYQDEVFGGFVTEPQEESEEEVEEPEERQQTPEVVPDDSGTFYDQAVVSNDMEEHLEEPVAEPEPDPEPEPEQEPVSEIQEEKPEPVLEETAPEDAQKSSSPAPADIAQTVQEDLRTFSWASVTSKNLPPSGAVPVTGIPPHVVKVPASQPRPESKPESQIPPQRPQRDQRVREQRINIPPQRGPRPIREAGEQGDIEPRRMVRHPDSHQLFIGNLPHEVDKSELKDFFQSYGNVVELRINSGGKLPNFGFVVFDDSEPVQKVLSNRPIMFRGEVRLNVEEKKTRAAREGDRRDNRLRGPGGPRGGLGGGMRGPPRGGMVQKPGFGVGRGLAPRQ

| SMILES | inhibition of HHS-465 probe labeling of recombinant EDC3 (in words) (recombinant EDC3; HHS-465 100 μM, 1 h, RT) | pIC50/EC50: pIC50 (recombinant EDC3; AHL-030, used for LipE) | IC50 (recombinant EDC3; IC50 (AHL-030), EDC3 probe labeling, read-out: IC50/EC50 (M): IC50) | IC50 (recombinant EDC3; in situ, 0.1-100 μM, 2 h, HHS-465 100 μM, 1 h, RT, n=3, read-out: IC50 for EDC3 probe labeling inhibition) | liganding of G3BP1 Y40 (in words) (G3BP1 Y40) | SILAC ratio (SR), G3BP1 Y40 (G3BP1 Y40; HHS-465 100 μM, DMSO (light)/ligand (heavy)) |
| --- | --- | --- | --- | --- | --- | --- |
| CC(C)c1cc(C(C)C)c(S(=O)(=O)n2cc(-c3ccc(C(F)(F)F)cc3)nn2)c(C(C)C)c1 [AHL-003] | largely inactive |  |  |  |  |  |
| COc1ccc(S(=O)(=O)n2cc(CS(C)(=O)=O)nn2)cc1 [AHL-030, 1-((4-Methoxyphenyl)sulfonyl)-4-((methylsulfonyl)methyl)-1H-1,2,3-triazole] | blocked HHS-465 probe labeling of EDC3 in a concentration-dependent manner; also recorded: concentration-dependent binding to recombinant EDC3; also recorded: competition of HHS-465 probe labeling | 5.3 | 5.6e-06 M | 6e-06 M and ~6e-06 M |  |  |
| N#Cc1ccc(S(=O)(=O)n2cc(-c3cccc(Cl)c3)nn2)cc1 [EKT231, 4-((4-(3-Chlorophenyl)-1H-1,2,3-triazol-1-yl)sulfonyl)benzonitrile] | largely inactive |  |  |  | lack of binding activity |  |
| COc1ccc(S(=O)(=O)n2cc(C3CCCCC3)nn2)cc1 [HHS-166, 4-Cyclohexyl-1-((4-methoxyphenyl)sulfonyl)-111-1,2,3-triazole] |  |  |  |  | liganded G3BP1 Y40; also recorded: liganded site (Y40) | > 2 |
